The structures appear in SMILES notation.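 Test compounds were applied to cells in 96-well plates for 48 hours at 5 doses. At the TGI there is no net growth.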

What all share (experiment): NCI tumour cell line growth inhibition, 48 h
Experiment [1] concerns P388 leukemia.
The test system of experiment [2] is DMS 273 small cell lung.
Experiment [3] deals with SNB-78 CNS.
Experiment [4] deals with XF 498 CNS.
In experiment [5] the test system is DMS 114 small cell lung.
For experiment [6], the system named is M19-MEL melanoma.
In experiment [7] the test system is HOP-18 NSCLC.
Experiment [8] has as its system SN12K1 renal.
Experiment [9] relates to P388/ADR leukemia.

Take `N=c1ccn2c(n1)OC1C(O)C(CO)OC12` (centres undefined): the TGI was 4.37 µM in [1]; more than 364 µM in experiment [2]; more than 1000 µM in experiment [3]; more than 1000 µM in [4]; more than 163 µM in experiment [5]; more than 1000 µM in experiment [6]. Moreover, the TGI in experiment [7] was more than 662 µM; in experiment [8] it was more than 1000 µM; in [9], 5.13 µM.

Source of the values: PubChem BioAssay (NCI).
